# Reference: publication PMC10671693, “Design, Synthesis, and Antitumor Activity Evaluation of Proteolysis-Targeting Chimeras as Degraders of Extracellular Signal-Regulated Kinases 1/2” (International Journal of Molecular Sciences, 2023)
# Entries after “also recorded” stand apart in the source; their conditions may differ. Read-outs that look alike come from different tables or passages of the source.
# Assays:
# [1] = system: HCT116 mouse xenografts; design: method as in PMID 27227380; conditions: cited from earlier work
# [2] = system: ERK2; conditions: cited from earlier work
# [3] = system: ERK1; conditions: cited from earlier work
# [4] = system: A375 cells; test: Transwell migration assay; type: cell-based, human; conditions: 24 h
# Experimental: A total of 100 µL of FBS-free DMEM high-glucose medium containing 20,000 cells was added to the upper layer of the Transwell chamber of a 24-well plate (3422, Corning, New York, NY, USA), and a complete medium containing 10% FBS was added to the lower layer. The experimental group and the control group were established. The control group used DMSO (DMSO concentration in the culture medium was no more than 0.5% in each well), and the specified concentration of compounds was added to the medium of the experimental group. The cells were then placed in an incubator for 24 h. The cells were washed with PBS, the cells in the upper layer of the Transwell chamber were wiped off with a cotton swab, and the cells were fixed with cold methanol for 15 min. The cells were stained with crystal violet reagent and observed and photographed under a microscope. Then, crystal violet was washed with 33% acetic acid and the absorbance was measured at a wavelength of 590 nm. Graphing with GraphPad Prism 8 after counting cells was performed.
# [5] = system: HCT116 cells; test: Cell proliferation (CCK8) assay, HCT116; type: cell-based, human; conditions: HCT116, 72 h, read-out: IC50 (growth inhibition, cytotoxicity)
# Experimental: (§1) A375, HCT116, Calu-6, and B16-F10 cells were purchased from American Type Culture Collection (ATCC) and cultured in DMEM high glucose media (SH30022.01, Cytiva, Shanghai, China) supplemented with 10% fetal bovine serum (10099-144, Gibco, Carlsbad, CA, USA) and 1% penicillin/streptomycin (Solarbio, Beijing, China) in an incubator at 37 °C with 5% CO2.
# (§2) A 96-well plate (3599, Corning, New York, NY, USA) was inoculated with 100 μL of complete medium containing 10,000 cells, and the experimental, control, and blank groups were established. Three parallel wells were used per concentration. After 10 h, the media from the experimental and control groups were replaced with a compound containing the indicated concentration of the complete medium. Cells were incubated for 72 h before 10 μL of CCK8 reagent (CA1210, Solarbio, Beijing, China) was added to each well and incubated for 1 h. Using a microplate reader (Tecan, Mannendorf, Switzerland), the absorbance at 450 nm was measured. The IC50 values were determined using GraphPad Prism 8 and nonlinear regression curve fitting.
# [6] = system: Calu-6 cells; test: Cell proliferation (CCK8) assay, Calu-6; type: cell-based; conditions: Homo sapiens, Calu-6, 72 h, read-out: IC50 (growth inhibition, cytotoxicity)
# Experimental: as §1, §2
# [7] = system: ERK1/2; test: Western blot ERK1/2 protein degradation assay in Calu-6 cells; type: cell-based, human; conditions: 48 h, Western blot and grayscale quantification
# Experimental: (§3) A375, HCT116, Calu-6, and B16-F10 cells were purchased from American Type Culture Collection (ATCC) and cultured in DMEM high glucose media (SH30022.01, Cytiva, Shanghai, China) supplemented with 10% fetal bovine serum (10099-144, Gibco, Carlsbad, CA, USA) and 1% penicillin/streptomycin (Solarbio, Beijing, China) in an incubator at 37 °C with 5% CO2. Cells were cultured under the indicated conditions as described in “Cell culture”. Cells were seeded in 6-well plates (3516, Corning, New York, NY, USA). Compounds were dissolved in DMSO for storage (10 mM). Following compound treatment, cells were washed with PBS, scraped from the plate, and lysed using cell lysis buffer (Applygen, Beijing, China). After the protein in the cell lysate was quantified via the BCA quantification method, the samples were placed in a metal bath at 100 °C and heated for 5 min. Cell lysates were separated using a 10% SDS–PAGE gel and transferred to PVDF membranes (Merck Millipore, Burlington, MA, USA). The PVDF membrane was blocked with 5% nonfat dry milk in TBST for one hour. The PVDF membrane was transferred to the antibody diluent and incubated overnight at 4 °C. PVDF membranes were washed three times with TBST for 5 min each and then incubated with the appropriate HRP-conjugated secondary antibody for 1 h at room temperature. […] Grayscale quantitative analysis was performed using ImageJ software. […]
# [8] = system: ERK1/2; test: Western blot ERK1/2 protein degradation assay in B16-F10 cells; type: cell-based; conditions: B16-F10 murine melanoma cells, 48 h
# Experimental: as §3
# [9] = system: ERK1/2; test: Western blot ERK1/2 protein degradation assay in HCT116 cells; type: cell-based, human
# Experimental: A375, HCT116, Calu-6, and B16-F10 cells were purchased from American Type Culture Collection (ATCC) and cultured in DMEM high glucose media (SH30022.01, Cytiva, Shanghai, China) supplemented with 10% fetal bovine serum (10099-144, Gibco, Carlsbad, CA, USA) and 1% penicillin/streptomycin (Solarbio, Beijing, China) in an incubator at 37 °C with 5% CO2. Cells were cultured under the indicated conditions as described in “Cell culture”. Cells were seeded in 6-well plates (3516, Corning, New York, NY, USA). Compounds were dissolved in DMSO for storage (10 mM). Following compound treatment, cells were washed with PBS, scraped from the plate, and lysed using cell lysis buffer (Applygen, Beijing, China). After the protein in the cell lysate was quantified via the BCA quantification method, the samples were placed in a metal bath at 100 °C and heated for 5 min. Cell lysates were separated using a 10% SDS–PAGE gel and transferred to PVDF membranes (Merck Millipore, Burlington, MA, USA). The PVDF membrane was blocked with 5% nonfat dry milk in TBST for one hour. The PVDF membrane was transferred to the antibody diluent and incubated overnight at 4 °C. PVDF membranes were washed three times with TBST for 5 min each and then incubated with the appropriate HRP-conjugated secondary antibody for 1 h at room temperature. After washing three more times with TBST, the PVDF membrane was stained with a hypersensitive ECL chemiluminescence reagent (Biodragon, Beijing, China) and then imaged with Tanon 5200. Grayscale quantitative analysis was performed using ImageJ software. Statistical analysis was performed using GraphPad Prism 8. DC50 and Dmax values were fitted using a four-parameter [inhibitor] versus response and reported directly from the Prism output. Mean ± SD and unpaired t tests were performed in GraphPad Prism.
# [10] = system: A375 cells; test: Cell proliferation (CCK8) assay, A375; type: cell-based; conditions: Homo sapiens, A-375, A375, 72 h, read-out: IC50 (growth inhibition, cytotoxicity)
# Experimental: as §1, §2
# [11] = system: HCT116 tumor; test: HCT116 subcutaneous xenograft model in nude mice; type: in vivo
# Experimental: Male BALB/c nude mice of around 8 weeks old were purchased from Charles River (Beijing, China). Nude mice were raised in SPF-grade animal rooms and had access to water and food ad libitum. HCT116 colorectal cancer cells were grown in DMEM supplemented with 10% fetal calf serum and 1% penicillin/streptomycin under standard cell culture conditions. HCT116 xenografts were prepared by subcutaneously injecting 5× 10^6 cells suspended in PBS into the right flank of each male BALB/c nude mouse. Tumor growth was monitored via caliper measurement, and volume was calculated using the following equation: 0.5 × max (length/width) × min (length/width) × min (length/width). When the tumors reached an average of approximately 100 mm^3, the mice were randomized into groups of five. The mice were injected intraperitoneally once a day at doses of 6, 12, 25 mg/kg compound B1-10J and 25 mg/kg 5-FU. Body weights and tumor volumes were measured every 2–3 days. All studies were appropriately statistically powered.
# [12] = system: ERK1/2; test: Western blot ERK1/2 protein degradation assay in A375 cells; type: cell-based, human
# Experimental: as §1
# Cells were cultured under the indicated conditions as described in “Cell culture”. Cells were seeded in 6-well plates (3516, Corning, New York, NY, USA). Compounds were dissolved in DMSO for storage (10 mM). Following compound treatment, cells were washed with PBS, scraped from the plate, and lysed using cell lysis buffer (Applygen, Beijing, China). After the protein in the cell lysate was quantified via the BCA quantification method, the samples were placed in a metal bath at 100 °C and heated for 5 min. Cell lysates were separated using a 10% SDS–PAGE gel and transferred to PVDF membranes (Merck Millipore, Burlington, MA, USA). The PVDF membrane was blocked with 5% nonfat dry milk in TBST for one hour. The PVDF membrane was transferred to the antibody diluent and incubated overnight at 4 °C. PVDF membranes were washed three times with TBST for 5 min each and then incubated with the appropriate HRP-conjugated secondary antibody for 1 h at room temperature. After washing three more times with TBST, the PVDF membrane was stained with a hypersensitive ECL chemiluminescence reagent (Biodragon, Beijing, China) and then imaged with Tanon 5200. Grayscale quantitative analysis was performed using ImageJ software. Statistical analysis was performed using GraphPad Prism 8. DC50 and Dmax values were fitted using a four-parameter [inhibitor] versus response and reported directly from the Prism output. Mean ± SD and unpaired t tests were performed in GraphPad Prism.
# [13] = system: tumor; design: method as in PMID 28376306; conditions: daily dose of 50 mg/kg; cited from earlier work
# [14] = system: BRAF mutant and RAS mutant cell lines; design: method as in PMID 29247021, PMID 28939558; conditions: preclinical studies; cited from earlier work
smiles,measurement,setting,value
"Cn1nccc1Nc1nccc(-c2ccn([C@H](CO)c3ccc(Cl)c(F)c3)c(=O)c2)n1 [GDC-0994, (S)-1-(1-(4-Chloro-3-fluorophenyl)-2-hydroxyethyl)-4-(2-((1-methyl-1H-pyrazol-5-yl)amino)pyrimidin-4-yl)pyridin-2(1H)-one]",antitumor activity,[1],potent antitumor activity
Cc1cccc(CN2C(=O)c3cc(-c4nc(Nc5ccnc(C#CCCN(C)CCCCCCCCCCNc6cccc7c6C(=O)N(C6CCC(=O)NC6=O)C7=O)c5)ncc4C)cn3C[C@H]2C)n1 (stereo partly shown) [Compound B1-10J],decrease of migration rate,"[4]; 1 μM, crystal violet absorbance 590 nm",more than 50%
same,cell migration (in words),[4]; Transwell chamber,dose-dependently inhibited; also recorded: decreased markedly; also recorded: significantly prevented the migration
same,IC50,[5],2100 nM
same,IC50,"[5]; Homo sapiens, HCT-116, 72 h",2200 nM
same,IC50,[6],15900 nM
same,DC50,[7],85 nM
same,ERK1/2 degradative activity (in words),[8],weak degradative activity
same,duration of ERK1/2 degradation,[9]; 1 μM,up to 72 h
same,time at which ERK1/2 degradation nearly reached its highest level,[9]; 1 μM,24 h
same,time at which ERK1/2 protein began to degrade,[9]; 1 μM,6 h
same,DC50,"[9]; 48 h, Western blot and grayscale quantification",102 nM
same,IC50,[10],> 30000 nM
same,tumor growth inhibition,"[11]; 25 mg/kg daily, intraperitoneal, up until day 19",approximately 50%
same,"tumor growth inhibition, dose dependence","[11]; 6, 12, 25 mg/kg Q.D., intraperitoneal",dose-dependent manner
same,antitumor effect (in words),"[11]; daily dose of 25 mg/kg, intraperitoneal, 25 mg/kg",more effective at a 25 mg/kg dose than 5-FU
same,body weight / tolerability,"[11]; nude mice with HCT116 xenograft, during treatment",well-tolerated
same,time after which ERK1/2 protein level returned to normal,[12]; 1 μM,> 48 h
same,time at which ERK1/2 degradation nearly reached its highest level,[12]; 1 μM,24 h
same,time at which ERK1/2 protein began to degrade,[12]; 1 μM,6 h
same,ERK1/2 degradation with/without MG132 and MLN4924,"[12]; 24 h, B1-10J 1 μM, MG132 1 μM, MLN4924 1 μM",only degraded by B1-10J alone
same,concentration dependence of ERK1/2 degradation (hook effect),"[12]; 24 h, large range of concentrations",typical “hook” effect
same,ERK1/2 degradative activity (in words),"[12]; 48 h, Western blot",slightly increased DC50; also recorded: effective ERK1/2 degraders
same,DC50,"[12]; 48 h, Western blotting and grayscale quantification",498 ± 369 nM
Cc1cccc(CN2C(=O)c3cc(-c4nc(Nc5ccnn5C)ncc4C)cn3C[C@H]2C)n1 [compound 35],IC50,[2],< 0.3 nM
same,antitumor effect,[13],significant tumor regression
CC(C)Nc1cc(-c2c[nH]c(C(=O)N[C@H](CO)c3cccc(Cl)c3)c2)c(Cl)cn1 [BVD-523],anticancer activity,[14],demonstrated anticancer activity
same,Ki,[2],0.04 nM
same,Ki,[3],< 0.3 nM
